42 molecules from the C3SDB collision cross section collection can be followed below.

The conditions of data set [1]: instrument: DT, single field, calibrated with Agilent tune mix (Agilent).
The conditions of data set [2]: instrument: DT, stepped-field.
For data set [3] the following is noted: instrument: DT, stepped-field. This is another data set of the same source.
The conditions of data set [4]: instrument: DT, single field, calibrated with Agilent tune mix (Agilent). This is another data set of the same source.

As to `CCCCCCCCCCCCCCCC(=O)N[C@@H](CO)[C@H](O)CCCCCCCCCCCCCCC` [Cer(34:0)], the “collision cross section (N2)” value in data set [1] ([M+HCOO]-) was 251.8 Å². As to `CCCCCCCCCCCCC=CC[C@@H](O)[C@H](CO)NC(=O)CCCCCCCCCCCCCCC` [Cer(34:1)], the “collision cross section (N2)” value is 250.4 Å² in data set [1] ([M+HCOO]-) and 253.6 Å² in data set [1] ([M+H]+). With `CCCCCCCCCCCCC=CC[C@@H](O)[C@H](CO)NC(=O)CCCCCCCCCCCCCCCCC` [Cer(36:01)], the “collision cross section (N2)” value in data set [2] ([M+H-H2O]+) worked out at 257.25 Å². With `CCCCCCCCCCCCC=CC[C@@H](O)[C@H](CO)NC(=O)CCCCCCCCCCCCCCCCC` [Cer(36:1)], the “collision cross section (N2)” value was 257.6 Å² in data set [1] ([M+HCOO]-), 261.6 Å² in data set [1] ([M+H]+), 268.6 Å² in data set [1] ([M+Na]+) and 248.6 Å² in data set [1] ([M-H]-). In the case of `CCCCCCCCCCCCCCCCCCCCCC(=O)N[C@@H](CO)[C@H](O)CCCCCCCCCCCCCCC` [Cer(40:0)], the “collision cross section (N2)” value is on record as 272 Å² in data set [1] ([M+HCOO]-), 274.7 Å² in data set [1] ([M+H]+) and 262.1 Å² in data set [1] ([M-H]-).

For `CCCCCCCCCCCCCCCCCCCCCC(=O)N[C@@H](CO)[C@H](O)CCCCCCCCCCCCCCC` [Cer(40:00)], the “collision cross section (N2)” value in data set [2] ([M+H]+) is on record as 274.03 Å². In the case of `CCCCCCCCCCCCC=CC[C@@H](O)[C@H](CO)NC(=O)CC=CCCCCCCCCCCCCCCCCCCC` [Cer(41:2)], the “collision cross section (N2)” value in data set [1] ([M+H]+) is on record as 273.5 Å²; in data set [1] ([M+Na]+), 273.8 Å².

As to `CCCCCCCCCCCCCCCCCCCCCCCC(=O)N[C@@H](CO)[C@H](O)CCCCCCCCCCCCCCC` [Cer(42:00)], the entries for the “collision cross section (N2)” value in data set [2] ([M+H]+) and in data set [2] ([M+Na]+) were 280.05 Å² and 281.85 Å², respectively.

Turning to `CCCCCCCCCCCCC=CC[C@@H](O)[C@H](CO)NC(=O)CC=CCCCCCCCCCCCCCCCCCCCCC` [Cer(43:02)], the “collision cross section (N2)” value in data set [2] ([M+H-H2O]+) turned out to be 275.52 Å². Regarding `CCCCCCCCCCCCC=CC[C@@H](O)[C@H](CO)NC(=O)CCCCCCCCCCCCCCCCCCCCCCCCC` [Cer(44:1)], the “collision cross section (N2)” value worked out at 284.8 Å² in data set [1] ([M+H]+) and 285 Å² in data set [1] ([M+Na]+). As for `CC/C=C\C/C=C\C/C=C\C/C=C\C/C=C\C/C=C\CCC(=O)O[C@@H](CO)COC(=O)CCCCCCCCCCCCCCCCCCC` [DG(42:6)], the “collision cross section (N2)” value in data set [1] ([M+NH4]+) was 280.3 Å². For `CCCCCCCCCCCCC=CC[C@@H](O)[C@H](CO[C@@H]1O[C@H](CO)[C@@H](O)C(O)C1O)NC(=O)CCCCCCCCCCCCCCC` (stereo partly drawn) [GlcCer(34:01)], the “collision cross section (N2)” value in data set [2] ([M+Na]+) came out at 278.95 Å².

Take `CCCCCCCCCCCCC=CC[C@@H](O)[C@H](CO[C@@H]1O[C@H](CO)[C@@H](O)C(O)C1O)NC(=O)CC=CCCCCCCCCCCCCCCCC` (stereo partly drawn) [GlcCer(38:02)]: the “collision cross section (N2)” value is 287.87 Å² in data set [2] ([M+H]+) and 287.34 Å² in data set [2] ([M+Na]+). As to `CCCCCCCCCCCCC=CC[C@@H](O)[C@H](CO[C@@H]1O[C@H](CO)[C@@H](O)C(O)C1O)NC(=O)CC=CCC=CCCCCCCCCCCCCC` (stereo partly drawn) [GlcCer(38:03)], the “collision cross section (N2)” value in data set [2] ([M+H]+) turned out to be 284.43 Å². In the case of `CCCCCCCCCCCCCCC(=O)OC[C@@H](O)COP(=O)([O-])OCC[N+](C)(C)C` [LPC(15:0)], in data set [1] ([M+H]+), the “collision cross section (N2)” value turned out to be 225 Å². For `CCCCCCCCCCCCCCCCC(=O)OC[C@@H](O)COP(=O)([O-])OCC[N+](C)(C)C` [LPC(17:0)], in data set [1] ([M+HCOO]-), the “collision cross section (N2)” value worked out at 237.7 Å².

Regarding `CCCCC/C=C\C/C=C\CCCCCCCCCC(=O)OC[C@@H](O)COP(=O)([O-])OCC[N+](C)(C)C` [LPC(20:2)], the “collision cross section (N2)” value in data set [1] ([M+H]+) turned out to be 233.9 Å². In the case of `CCCCCCCC/C=C\CCCCCCCCCC(=O)OC[C@@H](O)COP(=O)(O)OCCN` [LPE(20:1)], in data set [1] ([M-H]-), the “collision cross section (N2)” value was determined as 218.4 Å².

With `CCCCCCCCCCCCCCCCC(=O)OC[C@@H](O)COP(=O)(O)OC[C@H](N)C(=O)O` [LPS(17:0)], the “collision cross section (N2)” value in data set [1] ([M-H]-) is 220.1 Å². With `CCCCCCCC/C=C\CCCCCCCC(=O)OC[C@@H](O)COP(=O)(O)OC[C@H](N)C(=O)O` [LPS(18:1)], the “collision cross section (N2)” value worked out at 224.2 Å² in data set [1] ([M+H]+), 227 Å² in data set [1] ([M+Na]+) and 220.5 Å² in data set [1] ([M-H]-). `CCCCCCCCCC/C=C\CCCCCCCCCC(=O)OC[C@@H](O)COP(=O)(O)OC[C@H](N)C(=O)O` [LPS(22:1)]: the “collision cross section (N2)” value in data set [1] ([M-H]-) is reported as 234.2 Å². Same read-out and setting: for `CCCCCCCC/C=C\CCCCCCCCCC(=O)O[C@H](COC(=O)CCCCCCCCCCC)COP(=O)(O)O` [PA(32:1)] the value was 249 Å².

With `CCCC/C=C\CCCCCCCC(=O)OC[C@H](COP(=O)(O)O)OC(=O)CCCCCCCCCCCCCCCCCCCCC` [PA(36:1)], the “collision cross section (N2)” value in data set [1] ([M+NH4]+) was determined as 277.7 Å²; in data set [1] ([M+Na]+), 275.6 Å²; in data set [1] ([M-H]-), 261.6 Å². `CCCCCCCCCC/C=C\CCCCCCCCCC(=O)O[C@H](COC(=O)CCCCCCCCCCCC)COP(=O)([O-])OCC[N+](C)(C)C` [PC(35:1)]: in data set [1] ([M+H]+), the “collision cross section (N2)” value worked out at 289.2 Å². As for `CCCCCC/C=C\CCCCCCCCCCCC(=O)O[C@H](COC(=O)CCCCCCCCCCCCCCCCC)COP(=O)([O-])OCC[N+](C)(C)C` [PC(38:1)], the “collision cross section (N2)” value in data set [1] ([M+H]+) came out at 298.8 Å². The same measure, in the same setting: for `CCCCCCCCCCCCCCCCCCCC(=O)O[C@H](COC(=O)CCCCCCCCCCC)COP(=O)(O)OCCN` [PE(32:0)] the value was 271.4 Å². On the same count and under the same terms, to `CCCCCCCCCCCCCCCCCCCCCC(=O)OC[C@H](COP(=O)(O)OCCN)OC(=O)CCCCCCCCCCC` [PE(34:0)] belongs 277.5 Å².

Consider `CCCCC/C=C\C/C=C\CCCCCCCC(=O)OC[C@H](COP(=O)(O)O[C@H]1C(O)C(O)C(O)[C@@H](O)C1O)OC(=O)CCCCCCCCC/C=C\CCCCCCCCCC` (stereo partly drawn) [PI(40:3)], for which the “collision cross section (N2)” value in data set [1] ([M-H]-) is recorded as 299.2 Å².

On to `CCCCC[C@H](O)/C=C/[C@H]1[C@H](O)CC(=O)[C@@H]1C/C=C\CCCC(=O)O` [Prostaglandin E2], for which the “collision cross section (N2)” value in data set [3] ([M+Na]+) is 198.53 Å²; in data set [4] ([M+Na]+), 196.8 Å²; in data set [4] ([M-H2O-H]-) it was 183.57 Å². On to `c1ncc2[nH]cnc2n1` [Purine], for which the “collision cross section (N2)” value stood at 125.4 Å² in data set [3] ([M+H]+) and 121.8 Å² in data set [4] ([M+H]+). On the same counts, the results for `Cc1ncc(CO)c(C=O)c1O` [Pyridoxal] are 135.42 Å² and 130.5 Å².

For `Cc1ncc(CO)c(CO)c1O` [Pyridoxine], the “collision cross section (N2)” value in data set [3] ([M+H]+) is listed as 135.69 Å²; in data set [3] ([M+Na]+), 148.49 Å²; in data set [4] ([M+H]+), 134.6 Å²; in data set [4] ([M-H]-) it was 130.75 Å². For `OC[C@H]1O[C@H](OC[C@H]2O[C@H](O[C@]3(CO)O[C@H](CO)[C@@H](O)[C@@H]3O)[C@H](O)[C@@H](O)[C@@H]2O)[C@H](O)[C@@H](O)[C@H]1O` [Raffinose], the “collision cross section (N2)” value worked out at 208.72 Å² in data set [3] ([M+Na]+) and 209 Å² in data set [4] ([M+H]+). For `N[C@@H](CSCC(=O)O)C(=O)O` [S-Carboxymethyl-L-cysteine], the “collision cross section (N2)” value in data set [3] ([M+H]+) was found to be 141.13 Å²; in data set [3] ([M+Na]+), 142.13 Å²; in data set [4] ([M+H]+), 137.2 Å². Take `OC[C@H]1O[C@H](OC[C@H]2O[C@H](OC[C@H]3O[C@H](O[C@]4(CO)O[C@H](CO)[C@@H](O)[C@@H]4O)[C@H](O)[C@@H](O)[C@@H]3O)[C@H](O)[C@@H](O)[C@H]2O)[C@H](O)[C@@H](O)[C@H]1O` [Stachyose]: the results for the “collision cross section (N2)” value in data set [3] ([M+Na]+), in data set [4] ([M+Na]+) and in data set [4] ([M-H]-) were 236.4 Å², 234.1 Å² and 221.12 Å², respectively. Turning to `CC/C=C\C/C=C\C/C=C\C/C=C\C/C=C\C/C=C\CCC(=O)OC[C@@H](COC(=O)CCCCCCC/C=C\CCCCCCCCC)OC(=O)CCCCCCC/C=C\CCCCCCCCC` [TG(60:8)], the “collision cross section (N2)” value in data set [1] ([M+NH4]+) came out at 338.1 Å². On the same count and under the same terms, to `CC/C=C\C/C=C\C/C=C\C/C=C\C/C=C\CCCCCC(=O)OC[C@@H](COC(=O)CCCC/C=C\C/C=C\C/C=C\C/C=C\CC)OC(=O)CCCCCC/C=C\C/C=C\C/C=C\CCCCC` [TG(60:12)] belongs 331.7 Å².

As to `CCCCC/C=C\C/C=C\CCCCCCCC(=O)OC[C@H](COC(=O)CCCCCCCCC/C=C\CCCCCCCCCC)OC(=O)CCCCCCCCC/C=C\CCCCCCCCCC` [TG(62:4)], the “collision cross section (N2)” value in data set [1] ([M+NH4]+) turned out to be 345.8 Å². The same measure, in the same setting: for `CC/C=C\C/C=C\C/C=C\CCCCCCCC(=O)OC[C@H](COC(=O)CCCCCCCCCCC/C=C\C/C=C\CCCCC)OC(=O)CCCCCCCCC/C=C\CCCCCCCCCC` [TG(62:6)] the value was 344.1 Å²; for `CC/C=C\C/C=C\C/C=C\C/C=C\C/C=C\C/C=C\CCC(=O)OC[C@@H](COC(=O)CCCC/C=C\C/C=C\C/C=C\C/C=C\CC)OC(=O)CCCCCCCC/C=C\C/C=C\C/C=C\CCCCC` [TG(62:13)], 335.7 Å². With `C[C@]12CC[C@H]3[C@@H](CCC4=CC(=O)CC[C@@]43C)[C@@H]1CC[C@@H]2O` [Testosterone], the “collision cross section (N2)” value in data set [3] ([M+H]+) is on record as 183.82 Å²; in data set [3] ([M+Na]+), 206.07 Å²; in data set [4] ([M+H]+), 172.7 Å²; in data set [4] ([M-H]-) it was 175.64 Å². On to `Cc1cn([C@H]2C[C@H](O)[C@@H](CO)O2)c(=O)[nH]c1=O` [Thymidine], for which the “collision cross section (N2)” value in data set [3] ([M+Na]+) is 164.51 Å²; in data set [4] ([M+Na]+), 161 Å²; in data set [4] ([M-H]-), 151.22 Å².
